According to patent publication US8895617B1, “Composition and method for treating neurological disease” (Adamas Pharmaceuticals, Inc., priority 2004, dated 2014):
Entries after “also recorded” stand apart in the source; their conditions may differ.

How the values were obtained:
[1] = In vitro release profile, USP type 2 (paddle) dissolution; type: physicochemical; conditions: USP II Paddle, 0.1N HCl
Description: Compositions containing an aminoadamantane and levodopa/carbidopa are analyzed for release of the aminoadamantane and levodopa/carbidopa, according to the USP type 2 apparatus at a speed of 50 rpm. The dissolution media used include water, 0.1N HCl, or 0.1N HCl adjusted to pH 6.8 at 2 hours with phosphate buffer. The dissolution medium is equilibrated to 37±0.5° C.
The USP reference assay method for amantadine is used to measure the fraction of memantine released from the compositions prepared herein. Briefly, 0.6 mL sample (from the dissolution apparatus at a given time point) is placed into a 15 mL culture tube. 1.6 mL 0.1% Bromocresol Purple (in acetic acid) is added and vortexed for five seconds. The mixture is allowed to stand for approximately five minutes. 3 mL Chloroform is added and vortexed for five seconds. The solution is next centrifuged (speed […]) for five minutes. The top layer is removed with a disposable pipette. A sample is drawn into 1 cm flow cell and the absorbance is measured at 408 nm at 37° C. and compared against a standard curve prepared with known quantities of the same aminoadamantane. The quantity of determined is plotted against the dissolution time for the sample.
The USP reference assay method for levodopa is used to measure the fraction of levodopa released from the compositions prepared herein. Briefly, 0.5 ml samples from the dissolution apparatus removed at various times are assayed by liquid chromatography. The chromatograph is equipped with a 280 nm detector and a 3.9 mm×30 cm column containing packing Ll. The mobile phase is 0.09 N sodium phosphate, 1 mM sodium 1-decanesulfonate, pH 2.8. With the flow rate adjusted to about 2 mL per minute, the levodopa elutes in about 4 minutes and carbidopa elutes in about 11 minutes. From the saved dissolution samples, a 0.02 ml aliquot is injected into the chromatograph and the absorbance is measure and compared to standard to determine concentration & quantity. The quantity dissolved is then plotted against the dissolution time for the sample.
The cumulative fraction is the amount of drug substance released from the formulation matrix to the serum or gut environment (e.g., U.S. Pat. No. 4,839,177 or 5,326,570) or as measured with a USP II Paddle system using 0.1N HCl as the dissolution medium.

[2] = Estimated amantadine concentration in squirrel monkeys; type: in vivo, squirrel monkey; conditions: amantadine raised from 1 mg/kg to 45 mg/kg
Description: Briefly, squirrel monkeys (N=4) were lesioned with MPTP according to the protocol of Di Monte et al. (Mov. Disord. 15: 459-66 (2000)). […] Levodopa treatment at approximately 15 mg/kg (with 1.5 mg/kg carbidopa) mg/kg b.i.d. commenced a baseline UPDRS and dyskinesia measurement was established. […] We hypothesize that this translates into a potential 40% reduction in levodopa required to maintain UPDRS.

[3] = humans; cited from earlier work

Structure (SMILES) | cum. fraction released ([1]; Time 0, amantadine and levodopa/carbidopa combination) | cum. fraction released ([1]; Time 0.5) | cum. fraction released ([1]; Time 1.0) | cum. fraction released ([1]; Time 2.0) | cum. fraction released ([1]; Time 4.0) | cum. fraction released ([1]; Time 8.0) | cum. fraction released ([1]; Time 12.0) | estimated concentration [2] [μm] | Dose Dependent Toxicity [3]
NC12CC3CC(CC(C3)C1)C2 [Amantadine, 1-amino-adamantane] | 0.00 | 0.10 | 0.20 | 0.35 | 0.60 | 0.90 | 0.98 | ~3 | –
CC12CC3CC(C)(C1)CC(N)(C3)C2 [Memantine, 1-amino-3,5-dimethyladamantane] | – | – | – | – | – | – | – | – | Dose escalation; also recorded: hallucination
CC(N)C12CC3CC(CC(C3)C1)C2 (stereo not shown) [Rimantadine, 1-(1-aminoethyl)adamantane] | – | – | – | – | – | – | – | – | Insomnia
